target: Gamma-secretase; test: Inhibition of Gamma-secretase; format: protein-complex assay, Homo sapiens

Compound	IC50 [µM]
CCN(Cc1ccncc1)C(=O)OCC1CCc2ccccc2N1S(=O)(=O)c1ccc(Cl)cc1 (centres undefined)	0.088
O=C(OCC1CCc2ccccc2N1S(=O)(=O)c1ccc(Cl)cc1)N1CCC(N2CCCCCC2)CC1 (centres undefined)	0.255
O=C(OCC1CCc2ccccc2N1S(=O)(=O)c1ccc(Cl)cc1)N1CCC(N2CCCC2)CC1 (centres undefined)	0.29
O=C(NCCO)OCC1CCc2ccccc2N1S(=O)(=O)c1ccc(Cl)cc1 (centres undefined)	4.49
O=C(OCC1CCc2ccc(F)cc2N1S(=O)(=O)c1ccc(Cl)cc1)N1CCC(N2CCCCC2)CC1 (centres undefined)	0.056
O=C(OCC1CCc2ccccc2N1S(=O)(=O)c1ccc(Cl)cc1)N1CCN(C2CCCCC2)CC1 (centres undefined)	0.54
O=C(OCC1CCc2c(F)ccc(F)c2N1S(=O)(=O)c1ccc(Cl)cc1)N1CCC(N2CCCCC2)CC1 (centres undefined)	0.217
CN(C)C1CCN(C(=O)OCC2CCc3ccccc3N2S(=O)(=O)c2ccc(Cl)cc2)CC1 (centres undefined)	0.629
O=C(OCC1CCc2cc(F)ccc2N1S(=O)(=O)c1ccc(Cl)cc1)N1CCC(N2CCCCC2)CC1 (centres undefined)	> 1
O=C(NCCc1ccccc1)OCC1CCc2ccccc2N1S(=O)(=O)c1ccc(Cl)cc1 (centres undefined)	1.1
CN1CCCC1CCNC(=O)OCC1CCc2ccccc2N1S(=O)(=O)c1ccc(Cl)cc1 (centres undefined)	0.504
O=C(OCC1CCc2c(F)cc(F)cc2N1S(=O)(=O)c1ccc(Cl)cc1)N1CCC(N2CCCCC2)CC1 (centres undefined)	0.219
O=C(NCc1ccc([N+](=O)[O-])cc1)OCC1CCc2ccccc2N1S(=O)(=O)c1ccc(Cl)cc1 (centres undefined)	2.96
O=C(OCC1CCc2ccccc2N1S(=O)(=O)c1ccc(Cl)cc1)N1CCC(N2CCCCC2)CC1 (single isomer, unassigned; enantiomer b)	> 1
CCN(CCC1CCCN1C)C(=O)OCC1CCc2ccccc2N1S(=O)(=O)c1ccc(Cl)cc1 (centres undefined)	0.253
O=C(NCCCN1CCCC1)OCC1CCc2ccccc2N1S(=O)(=O)c1ccc(Cl)cc1 (centres undefined)	0.394
O=C(OCC1CCc2ccccc2N1S(=O)(=O)c1ccc(Cl)cc1)N1CCC(N2CCCCC2)CC1 (single isomer, unassigned; enantiomer a)	0.039
NC1CCN(C(=O)OCC2CCc3ccccc3N2S(=O)(=O)c2ccc(Cl)cc2)CC1 (centres undefined)	0.68
O=C(OCC1CCc2ccccc2N1S(=O)(=O)c1ccc(Cl)cc1)N1CCN(CCO)CC1 (centres undefined)	0.299
O=C(NCc1ccncc1)OCC1CCc2ccccc2N1S(=O)(=O)c1ccc(Cl)cc1 (centres undefined)	1.64
O=C(OCC1CCc2ccccc2N1S(=O)(=O)c1ccc(Cl)cc1)N1CCC(N2CCCCC2)CC1 (stereo in doubt; 26)	0.073
CCCN1CCN(C(=O)OCC2CCc3ccccc3N2S(=O)(=O)c2ccc(Cl)cc2)CC1 (centres undefined)	0.44
CCN(CCCN1CCCC1)C(=O)OCC1CCc2ccccc2N1S(=O)(=O)c1ccc(Cl)cc1 (centres undefined)	0.172
CCN(Cc1ccnc(N)c1)C(=O)OCC1CCc2ccccc2N1S(=O)(=O)c1ccc(Cl)cc1 (centres undefined)	0.58

— ChEMBL document CHEMBL1138382, “Tetrahydroquinoline sulfonamides as gamma-secretase inhibitors” (Bioorg Med Chem Lett, 2007)
